Among the data in patent US10829448B2, “Substituted benzoimidazoles as modulators of ROR-γ” (Vitae Pharmaceuticals, LLC, priority 2015, dated 2020) are IC50 and Ki values, retold here.

Test [1] addresses full-length RORγt in Jurkat cells (Homo sapiens (Human), UniProt P51449). Kind of test: RORγt 5×RORE Assay in Jurkat Cells (Assay 2). The class given is cell-based. The settings on record: RORγt 5×RORE Nanoluc luciferase reporter. How it is done: [formula] RORγt 5×RORE Assay in Jurkat Cells (Assay 2)
Compounds described herein were tested for RORγ inverse agonist activity in a cell-based, transcriptional activity assay. […] (Promega, Cat. # N1021) using KpnI and HindIII restriction sites. […] Tested compounds were added to the cells in the same media (final concentration of DMSO was 0.1% (v/v)), and the plates were incubated at 37° C./5% CO2 for 16-18 hrs. Luciferase activity in the conditioned supernatants was determined with NanoGlo® assay reagents (Promega, Cat. # N1130).

The target of test [2] is recombinant RORγ Ligand Binding Domain (LBD) protein (Homo sapiens (Human), UniProt P51449). Kind of test: Radio-Ligand RORγ Binding Assay (Assay 1). The conditions noted are these: competition with 25-hydroxy [26,27-3H]-cholesterol, SPA. How it is done: Radio-Ligand RORγ Binding Assay (Assay 1)
Sequence of recombinant RORγ Ligand Binding Domain (LBD) protein (P51449 269-508): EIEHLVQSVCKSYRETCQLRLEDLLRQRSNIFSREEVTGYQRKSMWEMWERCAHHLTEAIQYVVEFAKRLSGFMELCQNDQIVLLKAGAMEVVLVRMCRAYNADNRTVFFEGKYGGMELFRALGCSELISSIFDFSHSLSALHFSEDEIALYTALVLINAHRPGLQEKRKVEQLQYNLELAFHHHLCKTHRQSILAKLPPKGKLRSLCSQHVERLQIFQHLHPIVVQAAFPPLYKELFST
Compounds described herein were tested for ability to bind to RORγ in a cell-free competition assay with commercially available radio-ligand (RL), 25-hydroxy [26,27-^3H]-cholesterol (PerkinElmer, Cat. # NET674250UC), for a ligand binding site on a recombinant RORγ Ligand Binding Domain (LBD) protein expressed as a 6×His-Glutathione-S-Transferase (GST) fusion. […] The plate was shaken at 700 rpm for 20 min and incubated for 10 min at rt, after which 40 μL of poly-Lys YSi SPA beads (PerkinElmer, Cat. # RPNQ0010) were added to achieve 50 μg of the beads per well. The plate was incubated on an orbital shaker for 20 min and then for 10 min without agitation at rt. SPA signal for tritium beta radiation was registered on PerkinElmer Microbeta plate reader. […] The percent inhibition vs. concentration data were fit into a four-parameter model, and IC50 values were calculated from the fit as the concentrations corresponding to the inflection points on the dose-response curves.

Sequence of full-length RORγt in Jurkat cells (P51449 other isoform, or with tags, fused parts or gaps): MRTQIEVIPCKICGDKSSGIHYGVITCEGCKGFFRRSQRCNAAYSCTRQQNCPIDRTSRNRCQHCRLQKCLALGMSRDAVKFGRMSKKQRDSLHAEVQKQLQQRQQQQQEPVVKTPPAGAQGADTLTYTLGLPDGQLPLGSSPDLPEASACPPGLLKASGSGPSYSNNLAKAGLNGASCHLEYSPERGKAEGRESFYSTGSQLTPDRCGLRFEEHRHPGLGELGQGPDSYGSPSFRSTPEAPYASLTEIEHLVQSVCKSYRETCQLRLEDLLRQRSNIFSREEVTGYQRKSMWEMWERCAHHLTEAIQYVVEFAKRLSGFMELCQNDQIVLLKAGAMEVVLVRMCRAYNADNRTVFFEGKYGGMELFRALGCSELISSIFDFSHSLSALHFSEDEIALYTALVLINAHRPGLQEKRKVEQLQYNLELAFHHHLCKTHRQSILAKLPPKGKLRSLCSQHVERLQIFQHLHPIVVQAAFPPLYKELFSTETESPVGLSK

For the molecule `CCS(=O)(=O)c1ccc([C@H](CO)NC(=O)c2ccc3c(c2)nc(C(=O)c2ccc(C(F)(F)F)cc2)n3C2CC2)cc1` [BE-61, (R)-1-cyclopropyl-N-(1-(4-(ethylsulfonyl)phenyl)-2-hydroxyethyl)-2-(4-(trifluoromethyl)benzoyl)-1H-benzo[d]imidazole-5-carboxamide], the IC50 in test [1] is < 100 nM. Further, in test [2], the Ki is < 100 nM.

As for `CCS(=O)(=O)c1ccc([C@H](COC(N)=O)NC(=O)c2ccc3c(c2)nc(C[C@H]2CC[C@H](C(F)(F)F)CC2)n3C2CC2)cc1` [BE-66, (R)-2-(1-cyclopropyl-2-(((1r,4R)-4-(trifluoromethyl)cyclohexyl)methyl)-1H-benzo[d]imidazole-5-carboxamido)-2-(4-(ethylsulfonyl)phenyl)ethyl carbamate], in test [1], the 50% inhibitory concentration (IC50) was < 100 nM. The inhibitory constant (Ki) in test [2] was < 100 nM.

Consider `CCS(=O)(=O)c1ccc([C@@H](COC(N)=O)NC(=O)c2ccc3c(c2)nc(C[C@H]2CC[C@H](C(F)(F)F)CC2)n3C2CC2)cc1` [BE-67, (S)-2-(1-cyclopropyl-2-(((1r,4S)-4-(trifluoromethyl)cyclohexyl)methyl)-1H-benzo[d]imidazole-5-carboxamido)-2-(4-(ethylsulfonyl)phenyl)ethyl carbamate], for which the IC50 in test [1] was < 100 nM. In addition, the Ki in test [2] is < 100 nM.

As to `CCn1c(C[C@H]2CC[C@@H](C(F)(F)F)CC2)cc2cc(C(=O)NCc3ccc(S(=O)(=O)CC)cn3)ccc21` [IN-15.2, 1-ethyl-N-((5-(ethylsulfonyl)pyridin-2-yl)methyl)-2-(((1s,4s)-4-(trifluoromethyl)cyclohexyl)methyl)-1H-indole-5-carboxamide], the IC50 in test [1] was > 1000 nM. In test [2], the inhibitory constant (Ki) is < 100 nM.

As for `CCn1c(C[C@H]2CC[C@@H](C(F)(F)F)CC2)cc2cc(C(=O)N[C@@H](CO)c3ccc(S(=O)(=O)CC)cc3)ccc21` [IN-16.2, 1-ethyl-N-((R)-1-(4-(ethylsulfonyl)phenyl)-2-hydroxyethyl)-2-(((1s,4S)-4-(trifluoromethyl)cyclohexyl)methyl)-1H-indole-5-carboxamide], the IC50 in test [1] was > 1000 nM. Besides, in test [2], the inhibition constant Ki is < 100 nM.

For `CCn1c(C[C@H]2CC[C@@H](C(F)(F)F)CC2)cc2cc(C(=O)NCc3ccc(S(=O)(=O)CC)cc3)ccc21` [IN-17.2, 1-ethyl-N-(4-(ethylsulfonyl)benzyl)-2-(((1s,4s)-4-(trifluoromethyl)cyclohexyl)methyl)-1H-indole-5-carboxamide], the half-inhibitory concentration (IC50) in test [1] was > 1000 nM. The inhibition constant (Ki) in test [2] is < 100 nM.
